Here are results for four molecules from paper PMC6209530 (Journal of the American Chemical Society, 2018).

One assay relates to L1210 mouse leukemia. As to the kind of experiment: cell growth inhibition. In kind it is cell-based. The following applies: read-out: IC50, cell growth inhibition.
Assay [1] concerns mouse macrophages. Put plainly: cell growth inhibition. The conditions noted are these: read-out: IC50, cell growth inhibition. The assay is classed as cell-based.
Another assay has as its system mice. The conditions noted are these: cited from earlier work; for adjuvant activity in mice: intramuscular (i.m.) injection with antigen (OVA).
Assay [2] has as its system murine melanoma (B16-OVA). The following applies: combination with anti-PD-L1, diprovocim/OVA i.m., cited from earlier work.
The subject of assay [3] is mouse (NIH/3T3) fibroblast cells. Put plainly: cell growth inhibition. The assay is classed as cell-based. The following applies: read-out: IC50, cell growth inhibition.
A further assay has as its system B16 mouse melanoma. As to the kind of experiment: cell growth inhibition. In kind it is cell-based. The following applies: read-out: IC50, cell growth inhibition.
In a further assay the target is TLR1 and TLR2 (Mus musculus, UniProt Q9EPQ1+Q9QUN7). In kind it is cell-based. The conditions noted are these: 500 nM, macrophages from mutant or knockout mice.
Chain of TLR1 and TLR2 (Q9EPQ1 26-795): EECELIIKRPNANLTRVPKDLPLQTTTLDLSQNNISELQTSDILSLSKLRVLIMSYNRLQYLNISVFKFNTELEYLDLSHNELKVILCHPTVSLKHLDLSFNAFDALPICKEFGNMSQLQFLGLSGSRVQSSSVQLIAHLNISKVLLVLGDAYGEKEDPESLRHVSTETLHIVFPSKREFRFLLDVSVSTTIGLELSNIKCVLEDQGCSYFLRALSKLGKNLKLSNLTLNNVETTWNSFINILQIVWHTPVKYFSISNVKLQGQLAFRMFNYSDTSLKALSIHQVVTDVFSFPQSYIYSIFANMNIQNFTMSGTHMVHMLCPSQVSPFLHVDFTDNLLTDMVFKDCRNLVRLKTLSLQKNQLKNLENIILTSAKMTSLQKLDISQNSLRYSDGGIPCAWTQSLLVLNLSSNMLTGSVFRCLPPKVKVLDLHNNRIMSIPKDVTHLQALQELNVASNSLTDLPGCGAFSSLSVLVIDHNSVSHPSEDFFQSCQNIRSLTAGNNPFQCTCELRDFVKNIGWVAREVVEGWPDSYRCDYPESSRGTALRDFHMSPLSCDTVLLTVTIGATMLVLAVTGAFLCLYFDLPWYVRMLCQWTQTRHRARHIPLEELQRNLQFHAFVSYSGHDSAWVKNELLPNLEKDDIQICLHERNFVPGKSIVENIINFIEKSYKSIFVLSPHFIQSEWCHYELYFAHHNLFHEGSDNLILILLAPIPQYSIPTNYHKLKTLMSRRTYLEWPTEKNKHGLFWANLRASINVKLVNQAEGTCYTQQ
Chain of TLR1 and TLR2 (Q9QUN7 25-784): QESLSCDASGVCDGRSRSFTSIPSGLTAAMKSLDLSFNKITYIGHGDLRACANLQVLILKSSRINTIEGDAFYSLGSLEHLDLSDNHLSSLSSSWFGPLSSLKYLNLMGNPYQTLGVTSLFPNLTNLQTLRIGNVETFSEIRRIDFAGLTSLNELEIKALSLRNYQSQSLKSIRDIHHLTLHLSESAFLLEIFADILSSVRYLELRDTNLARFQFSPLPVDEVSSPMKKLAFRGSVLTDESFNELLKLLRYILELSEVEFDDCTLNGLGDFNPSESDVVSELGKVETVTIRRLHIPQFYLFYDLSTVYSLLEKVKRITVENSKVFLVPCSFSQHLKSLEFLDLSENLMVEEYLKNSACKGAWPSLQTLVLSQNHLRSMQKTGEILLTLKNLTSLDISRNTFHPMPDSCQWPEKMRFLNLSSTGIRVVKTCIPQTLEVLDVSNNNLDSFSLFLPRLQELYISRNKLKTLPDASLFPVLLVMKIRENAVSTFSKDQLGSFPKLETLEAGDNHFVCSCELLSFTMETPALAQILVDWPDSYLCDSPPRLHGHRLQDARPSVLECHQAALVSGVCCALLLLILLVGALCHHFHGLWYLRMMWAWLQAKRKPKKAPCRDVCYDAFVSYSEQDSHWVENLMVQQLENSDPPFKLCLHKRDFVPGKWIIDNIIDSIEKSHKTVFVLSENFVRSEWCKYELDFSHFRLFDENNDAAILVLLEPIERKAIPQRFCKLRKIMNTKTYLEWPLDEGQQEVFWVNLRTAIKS
The test system of another assay is human THP-1 cells. Put plainly: cell growth inhibition. The assay is classed as cell-based. The following applies: read-out: IC50, cell growth inhibition.
The subject of assay [4] is mouse macrophages. Put plainly: stimulated release of TNF-α from mouse macrophages. The assay is classed as cell-based. The following applies: read-out: EC50, stimulated release of TNF-α.
The subject of assay [5] is HCT116 human colon cancer. Put plainly: cell growth inhibition. In kind it is cell-based. The following applies: read-out: IC50, cell growth inhibition.
The subject of assay [6] is human foreskin (HFF) fibroblast cells. As to the kind of experiment: cell growth inhibition. In kind it is cell-based. The following applies: read-out: IC50, cell growth inhibition.
Assay [7] deals with differentiated human THP-1 cells. In kind it is cell-based.
The subject of assay [8] is IKKα, IKKβ, p38, JNK, and ERK. The conditions noted are these: cited from earlier work.
Where [9] appears, read: read-out: EC50, stimulated release of TNF-α, differentiated human THP-1 cells.

Read-outs that look alike come from different tables or passages of the source. Peptide text beside a SMILES is read from it. * marks the point of attachment. X1 = CCCCCCCCCCCCCCCC(=O)OCC(C*)OC(=O)CCCCCCCCCCCCCCC; Palmitoyl = CCCCCCCCCCCCCCCC(=O)*

For `O=C(N[C@H]1C[C@@H]1c1ccccc1)[C@@H]1CN(C(=O)c2ccc(C(=O)N3C[C@@H](C(=O)N[C@H]4C[C@@H]4c4ccccc4)[C@H](C(=O)N[C@H]4C[C@@H]4c4ccccc4)C3)cc2)C[C@H]1C(=O)N[C@H]1C[C@@H]1c1ccccc1` [Compound 3], the half-inhibitory concentration (IC50) (with L1210 mouse leukemia; in the assay on mouse macrophages [1]; in [3]; in the assay with B16 mouse melanoma; in the assay on human THP-1 cells; in assay [5]) was above 10000 nM throughout. The half-maximal inhibitory concentration (IC50) (as a rule, the midpoint of a concentration-inhibition curve) in assay [6] was above 10000 nM. In addition, the “adjuvant activity in TLR1 and TLR2 deficient mice” value in the assay on mice (i.m. with OVA, TLR1 and TLR2 deficient mice) was “inactive”. Besides, the “adjuvant activity in mice” value in the assay with mice is “active as an adjuvant”; in the assay with mice (listed as Diprovocim-1), “acts as an adjuvant”. The “protection from tumor rechallenge” value in assay [2] is “protected mice from tumor rechallenge”. Moreover, the “survival of mice implanted with B16-OVA melanoma” value was “cured or prolonged survival of mice” in assay [2] and “cured or prolonged the survival of mice” in [2] (listed as diprovocim-1). The “dependence of activity on downstream signaling proteins” value at TLR1 and TLR2 is “dependent on TLR1/TLR2 signaling through MyD88, TIRAP, and IRAK4”. The results for the concentration giving a half-maximal response (EC50) (with mouse macrophages [4]; in assay [7] (setting [9])) were 1.3 nM and 0.11 nM, respectively. In addition, the “times more potent than Pam3CSK4” value in assay [7] (direct side-by-side comparison, human THP-1 cells) is 5–10 times. Further, the “potency differential human THP-1 cells versus mouse macrophages” value in [7] (human versus mouse cell release of TNF-α) is given as 10 fold. Further, the “phosphorylation and activation of IKKα, IKKβ, p38, JNK, and ERK” value in [8] was “induce the phosphorylation and activation”.
Consider `O=C(NCCc1ccc(F)cc1)[C@@H]1CN(C(=O)c2ccc(C(=O)N3C[C@@H](C(=O)NCCc4ccc(F)cc4)[C@H](C(=O)NCCc4ccc(F)cc4)C3)cc2)C[C@H]1C(=O)NCCc1ccc(F)cc1` [Compound 4], for which the “fold more potent than the all racemate (69)” value in assay [7] (human THP-1 cells) was 3 fold. Also, the 50% effective concentration (EC50) (commonly the concentration needed to bring the measured effect to its halfway point) in [7] (setting [9]) is 50 nM.
As to `O=C(NCCc1ccc(F)cc1)C1CN(C(=O)c2ccc(C(=O)N3CC(C(=O)NCCc4ccc(F)cc4)C(C(=O)NCCc4ccc(F)cc4)C3)cc2)CC1C(=O)NCCc1ccc(F)cc1` (centres unmarked) [Compound 69], the 50% effective concentration (EC50) in assay [7] (setting [9]) was determined as 100 nM.
Consider `CCCCCCCCCCCCCCCC(=O)N[C@@H](CSCC(COC(=O)CCCCCCCCCCCCCCC)OC(=O)CCCCCCCCCCCCCCC)C(=O)N[C@@H](CO)C(=O)N[C@@H](CCCCN)C(=O)N[C@@H](CCCCN)C(=O)N[C@@H](CCCCN)C(=O)N[C@@H](CCCCN)C(=O)O` (some centres unmarked) [Pam3CSK4, reference compound] (Palmitoyl-C(X1)SKKKK-OH; N-terminus and C-terminus assumed), for which, in assay [7], the EC50 amounted to 0.91 nM.
